A short description of series [1]: Turbidity assay of relative solubility in aqueous buffers. The class given is physicochemical. The note with it: for turbidity threshold (L, M, H) 1.4: pH 1.4 as headed (method: SGF pH 1.5); for turbidity threshold (L, M, H) 4.5: pH 4.5 (SIF); for turbidity threshold (L, M, H) 6.8: pH 6.8 (SIF); for turbidity threshold (L, M, H) 7.4: pH 7.4 (HEPES). In outline: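 Turbidity was read spectrophotometrically at 490, 535 and 650 nm, and the endpoint is the concentration where OD passes 0.01, as the mean of the three wavelengths. Compounds came from 25 mM DMSO stock in 1:1 serial dilutions, added to HEPES pH 7.4, SIF pH 6.8 or 4.5 (0.05M NaH2PO4), or SGF pH 1.5 (0.5M NaCl).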

The target in a further series is CYP1A2 (Homo sapiens (Human), UniProt P05177). The experiment in a line: CYP enzyme inhibition, fluorescent substrate.
Chain of CYP1A2 (P05177 whole entry): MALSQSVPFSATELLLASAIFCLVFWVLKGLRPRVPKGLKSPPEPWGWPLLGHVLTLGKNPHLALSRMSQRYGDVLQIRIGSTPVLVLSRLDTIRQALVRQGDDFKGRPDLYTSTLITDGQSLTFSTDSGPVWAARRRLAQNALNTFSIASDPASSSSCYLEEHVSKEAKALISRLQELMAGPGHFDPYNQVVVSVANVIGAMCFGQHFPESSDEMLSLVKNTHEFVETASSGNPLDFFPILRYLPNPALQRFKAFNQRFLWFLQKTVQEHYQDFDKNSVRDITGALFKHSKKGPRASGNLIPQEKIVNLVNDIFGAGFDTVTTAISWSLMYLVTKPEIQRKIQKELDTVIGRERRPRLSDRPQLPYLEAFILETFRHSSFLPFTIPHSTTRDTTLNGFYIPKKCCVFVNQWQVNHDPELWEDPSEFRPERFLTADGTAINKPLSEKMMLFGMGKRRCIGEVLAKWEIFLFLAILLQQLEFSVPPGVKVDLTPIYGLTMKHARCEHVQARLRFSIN
Another series deals with CYP2C19 (Homo sapiens (Human), UniProt P33261). The series is described as follows: CYP enzyme inhibition, fluorescent substrate. The settings on record: read-out: Cyp IC50 (μM) 2C19. In short, it runs like this:
(§1)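 […]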

The target of the next series is CYP2C9 (Homo sapiens (Human), UniProt P11712). The experiment in a line: CYP enzyme inhibition, fluorescent substrate. In short, it runs like this: as §1
Chain of CYP2C9 (P11712 whole entry): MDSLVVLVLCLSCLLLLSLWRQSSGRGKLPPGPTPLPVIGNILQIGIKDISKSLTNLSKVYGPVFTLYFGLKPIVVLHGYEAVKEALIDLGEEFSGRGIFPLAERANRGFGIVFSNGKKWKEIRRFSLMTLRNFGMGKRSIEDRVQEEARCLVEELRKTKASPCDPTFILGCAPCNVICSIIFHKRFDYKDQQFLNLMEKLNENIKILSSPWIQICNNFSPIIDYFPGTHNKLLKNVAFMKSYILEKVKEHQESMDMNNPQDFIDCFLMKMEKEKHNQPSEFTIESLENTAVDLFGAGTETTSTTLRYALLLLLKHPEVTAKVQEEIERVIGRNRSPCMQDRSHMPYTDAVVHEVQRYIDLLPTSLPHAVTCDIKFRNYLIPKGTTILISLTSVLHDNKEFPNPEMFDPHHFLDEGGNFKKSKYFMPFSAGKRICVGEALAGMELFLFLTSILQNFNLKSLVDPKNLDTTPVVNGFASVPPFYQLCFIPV
A further series addresses CYP2D6 (Homo sapiens (Human), UniProt P10635). The series is described as follows: CYP enzyme inhibition, fluorescent substrate. The note with it: read-out: Cyp IC50 (μM) 2D6.
The next series concerns the target CYP3A4(BFC) (Homo sapiens (Human), UniProt P08684). The experiment in a line: CYP enzyme inhibition, fluorescent substrate. In outline:
as §1

A further series deals with CYP3A4(BQ) (Homo sapiens (Human), UniProt P08684). The series is described as follows: CYP enzyme inhibition, fluorescent substrate. In short, it runs like this: as §1
Chain of CYP3A4(BQ) (P08684 whole entry): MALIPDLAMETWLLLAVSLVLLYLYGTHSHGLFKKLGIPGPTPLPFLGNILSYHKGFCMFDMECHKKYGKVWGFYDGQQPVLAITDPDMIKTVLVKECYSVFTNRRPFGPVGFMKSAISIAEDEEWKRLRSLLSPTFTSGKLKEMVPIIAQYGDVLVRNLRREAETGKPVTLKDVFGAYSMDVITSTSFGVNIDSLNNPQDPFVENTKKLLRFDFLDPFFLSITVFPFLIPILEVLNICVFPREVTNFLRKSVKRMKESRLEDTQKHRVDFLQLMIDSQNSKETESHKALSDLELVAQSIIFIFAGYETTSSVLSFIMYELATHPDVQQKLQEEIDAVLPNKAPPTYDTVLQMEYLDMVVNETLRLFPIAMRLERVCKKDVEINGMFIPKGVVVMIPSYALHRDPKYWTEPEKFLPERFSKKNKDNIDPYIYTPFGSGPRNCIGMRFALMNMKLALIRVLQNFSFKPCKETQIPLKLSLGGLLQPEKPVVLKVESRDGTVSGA
The mark [2] stands for this setting: read-out: Cyp IC50 (μM) 3A4(BQ), BQ substrate.

Molecules are shown by their SMILES. Where two headings read alike, the source gives them in different places. A value given as a limit tells only on which side of the number the result lay.

Chain of CYP2C19 (P33261 whole entry): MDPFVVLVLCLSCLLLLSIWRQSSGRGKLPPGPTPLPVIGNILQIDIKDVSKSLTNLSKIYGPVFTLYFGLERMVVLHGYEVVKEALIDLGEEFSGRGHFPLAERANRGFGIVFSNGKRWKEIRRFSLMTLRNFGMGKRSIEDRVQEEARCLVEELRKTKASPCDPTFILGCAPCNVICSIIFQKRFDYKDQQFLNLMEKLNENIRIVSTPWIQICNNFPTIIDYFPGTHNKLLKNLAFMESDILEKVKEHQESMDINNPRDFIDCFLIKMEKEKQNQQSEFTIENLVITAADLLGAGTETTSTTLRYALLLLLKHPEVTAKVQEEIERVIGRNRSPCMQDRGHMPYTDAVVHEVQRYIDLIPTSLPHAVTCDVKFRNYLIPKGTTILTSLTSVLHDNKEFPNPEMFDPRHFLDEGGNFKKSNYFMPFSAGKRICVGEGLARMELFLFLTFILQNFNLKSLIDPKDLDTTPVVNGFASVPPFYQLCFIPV
Chain of CYP3A4(BFC) (P08684 whole entry): as the sequence (P08684 whole entry) above
Chain of CYP2D6 (P10635 whole entry): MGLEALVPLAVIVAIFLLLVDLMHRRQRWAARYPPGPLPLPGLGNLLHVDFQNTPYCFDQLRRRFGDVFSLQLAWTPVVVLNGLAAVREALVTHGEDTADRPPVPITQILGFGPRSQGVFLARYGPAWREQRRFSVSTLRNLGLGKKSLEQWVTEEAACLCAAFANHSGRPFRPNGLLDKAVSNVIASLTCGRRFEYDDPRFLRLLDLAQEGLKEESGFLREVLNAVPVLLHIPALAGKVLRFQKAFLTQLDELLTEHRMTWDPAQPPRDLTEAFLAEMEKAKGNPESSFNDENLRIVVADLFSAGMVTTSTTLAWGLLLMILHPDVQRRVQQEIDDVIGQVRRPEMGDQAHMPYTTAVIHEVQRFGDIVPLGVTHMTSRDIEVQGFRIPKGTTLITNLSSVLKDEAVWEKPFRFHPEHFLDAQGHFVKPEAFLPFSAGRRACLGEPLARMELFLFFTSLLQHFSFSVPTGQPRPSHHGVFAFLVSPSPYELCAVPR

Turning to `COc1ccc(CNc2ncc(Cc3c[nH]c4ncc(C)cc34)cc2F)cn1` [Compound P-1562, [3-Fluoro-5-(5-methyl-1H-pyrrolo[2,3-b]pyridin-3-ylmethyl)-pyridin-2-yl]-(6-methoxy-pyridin-3-ylmethyl)-amine], the “turbidity threshold (L, M, H) 1.4” value in series [1] is “H (high solubility if the threshold concentration is >250 μM)”. Further, the “turbidity threshold (L, M, H) 4.5” value in series [1] is reported as “H (high solubility if the threshold concentration is >250 μM)”. In addition, the “turbidity threshold (L, M, H) 6.8” value in series [1] was “M (moderate solubility if the threshold concentration is 31.3 μM to 250 μM)”. In addition, in series [1], the “turbidity threshold (L, M, H) 7.4” value was “M (moderate solubility if the threshold concentration is 31.3 μM to 250 μM)”. Moreover, the IC50 against CYP1A2 (human, 15 min) is greater than 10 µM; on CYP2C19, greater than 10 µM; on CYP2C9 (read-out: Cyp IC50 (μM) 2C9), less than 5 µM; on CYP2D6, greater than 10 µM; against CYP3A4(BFC), 5 to 10 µM; against CYP3A4(BQ) it was 5 to 10 µM.

For the molecule `Fc1cncc(CNc2ccc(Cc3c[nH]c4ncc(Cl)cc34)c(F)n2)c1` [Compound P-2001, [5-(5-Chloro-1H-pyrrolo[2,3-b]pyridin-3-ylmethyl)-6-fluoro-pyridin-2-yl]-(5-fluoro-pyridin-3-ylmethyl)-amine], in series [1], the “turbidity threshold (L, M, H) 1.4” value is reported as “M (moderate solubility if the threshold concentration is 31.3 μM to 250 μM)”. The “turbidity threshold (L, M, H) 4.5” value in series [1] is “L (low solubility if the threshold concentration is <31.3 μM)”. The “turbidity threshold (L, M, H) 6.8” value in series [1] was “L (low solubility if the threshold concentration is <31.3 μM)”. In series [1], the “turbidity threshold (L, M, H) 7.4” value is “L (low solubility if the threshold concentration is <31.3 μM)”. Moreover, the half-inhibitory concentration (IC50) is greater than 10 µM on CYP1A2 (human, 15 min); less than 5 µM on CYP2C19; 5 to 10 µM at CYP2C9; greater than 10 µM on CYP2D6; 5 to 10 µM against CYP3A4(BFC); 5 to 10 µM against CYP3A4(BQ).

`COc1ncc(F)cc1CNc1ncc(Cc2c[nH]c3ncc(C)cc23)cn1` [Compound P-2061, (5-Fluoro-2-methoxy-pyridin-3-ylmethyl)-[5-(5-methyl-1H-pyrrolo[2,3-b]pyridin-3-ylmethyl)-pyrimidin-2-yl]-amine]: the “turbidity threshold (L, M, H) 1.4” value in series [1] is “H (high solubility if the threshold concentration is >250 μM)”. Further, the “turbidity threshold (L, M, H) 4.5” value in series [1] is listed as “M (moderate solubility if the threshold concentration is 31.3 μM to 250 μM)”. For the same molecule, in series [1], the “turbidity threshold (L, M, H) 6.8” value is reported as “M (moderate solubility if the threshold concentration is 31.3 μM to 250 μM)”. In series [1], the “turbidity threshold (L, M, H) 7.4” value was “L (low solubility if the threshold concentration is <31.3 μM)”. For the same molecule, the IC50 against CYP1A2 (human, 15 min) is greater than 10 µM; at CYP2C19, greater than 10 µM; against CYP2C9, 5 to 10 µM; at CYP2D6, greater than 10 µM; on CYP3A4(BFC) (read-out: Cyp IC50 (μM) 3A4(BFC), BFC substrate), greater than 10 µM; on CYP3A4(BQ), 5 to 10 µM.

Take `Cc1cnc2[nH]cc(Cc3ccc(NCc4cnccc4C(F)(F)F)nc3F)c2c1` [Compound P-2062, [6-Fluoro-5-(5-methyl-1H-pyrrolo[2,3-b]pyridin-3-ylmethyl)-pyridin-2-yl]-(4-trifluoromethyl-pyridin-3-ylmethyl)-amine]: in series [1], the “turbidity threshold (L, M, H) 1.4” value was “H (high solubility if the threshold concentration is >250 μM)”. Also, the “turbidity threshold (L, M, H) 4.5” value in series [1] was “L (low solubility if the threshold concentration is <31.3 μM)”. In addition, in series [1], the “turbidity threshold (L, M, H) 6.8” value is listed as “L (low solubility if the threshold concentration is <31.3 μM)”. The “turbidity threshold (L, M, H) 7.4” value in series [1] is on record as “L (low solubility if the threshold concentration is <31.3 μM)”. Besides, the 50% inhibitory concentration (IC50) is greater than 10 µM against CYP1A2 (human, 15 min); less than 5 µM at CYP2C19; less than 5 µM at CYP2C9 (read-out: Cyp IC50 (μM) 2C9); greater than 10 µM at CYP2D6; 5 to 10 µM at CYP3A4(BFC); 5 to 10 µM at CYP3A4(BQ).

On to `COc1ncc(CNc2ncc(Cc3c[nH]c4ncc(C)cc34)cn2)cc1F` [Compound P-2073, (5-Fluoro-6-methoxy-pyridin-3-ylmethyl)-[5-(5-methyl-1H-pyrrolo[2,3-b]pyridin-3-ylmethyl)-pyrimidin-2-yl]-amine], for which, in series [1], the “turbidity threshold (L, M, H) 1.4” value is reported as “H (high solubility if the threshold concentration is >250 μM)”. In series [1], the “turbidity threshold (L, M, H) 4.5” value was “M (moderate solubility if the threshold concentration is 31.3 μM to 250 μM)”. The “turbidity threshold (L, M, H) 6.8” value in series [1] is reported as “M (moderate solubility if the threshold concentration is 31.3 μM to 250 μM)”. The “turbidity threshold (L, M, H) 7.4” value in series [1] is on record as “M (moderate solubility if the threshold concentration is 31.3 μM to 250 μM)”. The concentration for half-maximal inhibition (IC50) is greater than 10 µM against CYP1A2 (human, 15 min); greater than 10 µM on CYP2C19; less than 5 µM on CYP2C9 (read-out: Cyp IC50 (μM) 2C9); greater than 10 µM on CYP2D6; 5 to 10 µM on CYP3A4(BFC); greater than 10 µM on CYP3A4(BQ) (setting [2]).

As for `Cc1cnc2[nH]cc(Cc3ccc(NCc4ccc(Cl)nc4)nc3F)c2c1` [Compound P-2088, (6-Chloro-pyridin-3-ylmethyl)-[6-fluoro-5-(5-methyl-1H-pyrrolo[2,3-b]pyridin-3-ylmethyl)-pyridin-2-yl]-amine], the IC50 on CYP1A2 (read-out: Cyp IC50 (μM) 1A2) was greater than 10 µM; on CYP2C19 it was less than 5 µM; at CYP2C9 (read-out: Cyp IC50 (μM) 2C9), less than 5 µM; at CYP2D6, greater than 10 µM; at CYP3A4(BFC), 5 to 10 µM; on CYP3A4(BQ) it was 5 to 10 µM.

With `Cc1cnc2[nH]cc(Cc3ccc(NCc4cccnc4F)nc3F)c2c1` [Compound P-2103, [6-Fluoro-5-(5-methyl-1H-pyrrolo[2,3-b]pyridin-3-ylmethyl)-pyridin-2-yl]-(2-fluoro-pyridin-3-ylmethyl)-amine], the half-inhibitory concentration (IC50) is greater than 10 µM against CYP1A2 (human, 15 min); less than 5 µM at CYP2C19; less than 5 µM at CYP2C9 (read-out: Cyp IC50 (μM) 2C9); greater than 10 µM on CYP2D6; 5 to 10 µM on CYP3A4(BFC); 5 to 10 µM against CYP3A4(BQ).

For `Cc1cnc2[nH]cc(Cc3ccc(NCc4ccnc(F)c4)nc3F)c2c1` [Compound P-2118, [6-Fluoro-5-(5-methyl-1H-pyrrolo[2,3-b]pyridin-3-ylmethyl)-pyridin-2-yl]-(2-fluoro-pyridin-4-ylmethyl)-amine], the half-maximal inhibitory concentration (IC50) was greater than 10 µM against CYP1A2 (human, 15 min); less than 5 µM at CYP2C19; 5 to 10 µM against CYP2C9; greater than 10 µM on CYP2D6; 5 to 10 µM against CYP3A4(BFC); greater than 10 µM on CYP3A4(BQ) (setting [2]).

Consider `COc1ncccc1CNc1ncc(Cc2c[nH]c3ncc(C)cc23)cn1` [Compound P-2139, (2-Methoxy-pyridin-3-ylmethyl)-[5-(5-methyl-1H-pyrrolo[2,3-b]pyridin-3-ylmethyl)-pyrimidin-2-yl]-amine], for which the IC50 on CYP1A2 (human, 15 min) was greater than 10 µM; on CYP2C19, greater than 10 µM; at CYP2C9, 5 to 10 µM; on CYP2D6, greater than 10 µM; against CYP3A4(BFC), 5 to 10 µM; at CYP3A4(BQ) (setting [2]), greater than 10 µM.

Consider `COc1cnc2[nH]cc(Cc3cnc(NCc4ccc(C(F)(F)F)nc4)c(F)c3)c2c1` [Compound P-2147, [3-Fluoro-5-(5-methoxy-1H-pyrrolo[2,3-b]pyridin-3-ylmethyl)-pyridin-2-yl]-(6-trifluoromethyl-pyridin-3-ylmethyl)-amine], for which the IC50 on CYP1A2 (human, 15 min) was greater than 10 µM; on CYP2C19 it was less than 5 µM; on CYP2C9 (read-out: Cyp IC50 (μM) 2C9), greater than 10 µM; on CYP2D6 it was greater than 10 µM; against CYP3A4(BFC), 5 to 10 µM; against CYP3A4(BQ) it was 5 to 10 µM.

For the origin of these results see patent publication US9096593B2, “Compounds and methods for kinase modulation, and indications therefor” (Plexxikon Inc., priority 2009, dated 2015).
